Experimental data taken from US20080153910A1, “LYSINE IN THERAPEUTIC ANGIOGENESIS FOR CARDIAC AND CEREBRAL/NEURAL REPERFUSION” (priority 2001, published 2008).
“Also recorded” adds a separate entry of the source.

Legend:
[1] = tested on: acute surgical wounds; test: Acute surgical wound model (full thickness skin incisions); assay type: in vivo, Rabbits
Description: Rabbits (about 1.5 Kg body wt.) from Haffkine Biopharmaceuticals, Mumbai, India were used for acute surgical wound model experimentations.
For acute surgical wound experiments, dorsal paravertebral skin was shaved in both the groups. Full thickness skin incisions (about 1 inch long) were made on either side of the vertebral column under local anaesthesia. In the experimental group, “lysine” in powder form(s) was instilled/spinkled/applied (about 10-15 mg) in each wound and the wounds were closed by single suture each to keep the edges apposed. No surface/systemic antibiotics were given to the animals dressed with “lysine”. Similar treatments were given to the control wounds except for omitting the “lysine” dressing altogether. Control wounds were protected with surface antibiotics ointment, applied at the time of each dressing. The wounds were covered with adhesive plasters in both the groups. Dressings were replaced every 48-72 hrs.
(§1) Tissue biopsies were taken from both groups—either animals or human beings—from appropriate wound site(s)/cardiac tissue (myocardium) at various time points post surgery/applications/dressings with the active ingredient(s), fixed at room temp. for 24 hrs. in formal saline (4% v/v). Tissue sections were stained with haematoxylin and eosin and observed under light microscope.
For examination of wound tissues under scanning electron microscope, skin tissues were taken (about 1.5 inch square) surgically under local anaesthesia in such a way that the original wound incision lied at the center of this piece of skin tissue, which was fixed in formal saline (4%) for 24 hrs at room temp. and pressure. Before mounting on to the observation stub with the help of a double faced adhesive tape, the wet tissues were dried adequately first with tissue papers and then at 37 degree Centrigrade incubator for about 2 hrs. Finally the dried tissues were cut with scissors in such a way that the cut line in each case was perpendicular to the original incision line. The finally prepared samples were gold coated in a hummer for around 4 minutes in vacuum and examined in a scanning electron microscope (Jeol).

[2] = tested on: chronic wounds; test: Controlled open trial of lysine in chronic human wounds; assay type: in vivo
Description: Chronic wounds of different anatomical locations as well as etiology were included in the controlled open trial of “lysine” for it's/their ability to induce angiogenesis and induction of the healthy granulation tissue formation in these chronic wounds. These included diabetic wounds and ulcers of various durations and severity, bed sores and pressure sores of various durations, infected wounds and cellulitic wounds of various origins, burns of different degrees and extents—both infected and otherwise, amputations, skingrafts, venous ulcers and even leprotic wounds and ulcers of long standing.
The wounds were debrided manually with gauge pieces soaked in normal saline to the point of bleeding of smaller vessels at the base of the wounds (wound-bed). Some of the chronic wounds were debrided surgically depending on the severity of the wound condition(s). Dressings were done with adequate amounts of the amino acid and/derivative(s) applied to the wound site(s) topically/locally. Wounds were closed with moistened gauge piece and adhesive tapes and the procedure repeated every 72-96 hrs. This approach constituted the experimental group subjects. In the control groups, conventional therapy were instituted both in terms of surgical/manual/enzymatic debridements as well as applying usual medications e.g. betadine, salutyl (a preparation which removes ischaemia by inducing angiogenesis in ischaemic wounds), trypsin, chymotrypsin, metronidazole preparations, silver sulfadiazine, regranex (a PDGF based healing agent containing “small” amount of the cationic amino acid lysine as “stabilizing agent”, along with quite a few other additives and ingredients), various surface antibiotics etc., depending on the clinical condition in question.
as §1

[3] = tested on: ischaemic myocardium; test: Cardiac angiogenesis / coronary ischaemia model; assay type: in vivo, sheep
Description: For cardiac angiogenesis experiments, healthy immunized adult sheep, weighing 20-30 Kgs were selected. The selected animals underwent routine blood tests and echocardiography prior to surgery which acted as the base line data. Under general anaesthesia, 4 sheep were operated through a left thoracotomy. […] In one of the experimental animals, in addition to the intramuscular injection of lysine, about 10 ml of the saturated solution of lysine was injected at the root of the aorta through a pig-tail catheter passed retrogradely through the descending thoracic aorta. […] Post-operative echocardiogram were done in all the animals at 96 hrs post-surgery to assess the left ventricular wall motion. Two weeks post-surgery echocardiograms were done to assess left ventricular wall motion. The animals were sacrificed and autopsy of the hearts were done for examination of the degree of angiogenesis.
Tissue biopsies were taken from both groups—either animals or human beings—from appropriate wound site(s)/cardiac tissue (myocardium) at various time points post surgery/applications/dressings with the active ingredient(s), fixed at room temp. for 24 hrs. in formal saline (4% v/v). Tissue sections were stained with haematoxylin and eosin and observed under light microscope. […]

[4] = tested on: hybridoma cell mass; details: compared to other physico-chemical means (Datta, D et al. 1997); cited from earlier work
[5] = tested on: adherent cellular growth; test: Cellular expansion in culture (in-vitro); assay type: cell-based; details: compared to l-lysine; d-Lysine about 10 mcg/ml added load
Description: Photo 12, cell culture photographs of d-Lysine (about 10 mcg/ml of added load, in addition to the usual load of I-Lysine, whatever was there in the media as the metabolic requirement) mediated cellular expansion in culture. […] In-situ controlled and physiological expansion of constituent cells in a wound bed, including the endothelial cells and their mediation of normal angiogenic process, mediate only by lysine/derivative(s), without addition/intervention of any other additive(s), whatsoever, is the essence of present invention.

[6] = tested on: angiogenesis; test: Oligo-lysine and d-lysine induced cell expansion and angiogenesis in-vivo; details: compared to l-lysine
[7] = tested on: collagen synthesis; test: 14C-Glycine incorporation in wound tissue; assay type: in vivo; details: experimental wound, 100% (w/w) topical, 0.25 to 100 mg/sq. in
Description: As glycine is present at every third position in the primary sequence of Collagen, ^14C-Glycine incorporation in the wound tissue was supposed to give an idea of differential collagen synthesis in experimental and control wounds.

[8] = tested on: protein synthesis; test: 35S-Methionine incorporation in acute surgical wound tissue; assay type: in vivo; details: 72 hrs post surgery, topical, vs control wound, HCl

NCCCC[C@H](N)C(=O)O [lysine, Lysine]
granulation tissue (scanning electron microscopy) ([1]; acute surgical incision dressed with topically applied lysine, 72 hrs post surgery): spongy granulation tissue | dividing cells in-vivo ([1]; acute surgical incision model, systemic application): stratified layers of dividing cells | histopathology: cellular thickening from basal keratinocyte layer ([1]; rabbit, experimental vs control wound): extensive cellular thickening from the basal keratinocyte layer | granulation tissue (scanning electron microscopy) ([1]; systemic lysine, i.p. injection, 5 ml, 5 mg/ml): spongy granulation tissue in the vicinity of the incision | in-situ tissue repair ([2]; all types of acute and chronic wounds of both animal and human origin): excellent tissue regeneration in-situ | granulation tissue / angiogenic response ([2]; bed sore, about two weeks of topical application): Extensive granulation tissue and profuse angiogenic response | time to skin graft ([2]; cellulitic wound following 3rd degree burn): around two weeks | granulation/angiogenic tissue in wound bed ([2]; cellulitic wound following 3rd degree burn, 11th day post initiation of therapy): extensive granulation/angiogenic tissue | granulation/angiogenesis ([2]; cellulitic wound following 3rd degree burn, third day of topical therapy): reasonable granulation/angiogenesis | blood cell intravasation in the wound area ([2]; chronic diabetic ulcer, around 11th day post initiation of therapy): extensive blood cell intravasation | glandular structures (histopathology) ([2]; chronic diabetic ulcer, topical): healthy glandular structures | angiogenic response (histopathology) ([2]; chronic human wounds, topical): profuse angiogenic response; also recorded: Extensive angiogenic response | time to skin graft (clinical end point) ([2]; chronic stump wound): around two weeks | granulation ([2]; chronic stump wound, within two weeks of topical therapy): extensive granulation | Keratinocyte layer thickening (histopathology) ([2]; experimental wounds of human origin): very advanced degree of Keratinocyte layer thickening | time to ready for skin graft ([2]; infected third degree burn, post institution of therapy): 13 days | induction of granulation tissue/angiogenesis ([2]; infected third degree burn, within around two weeks): remarkable induction of granulation tissue/angiogenesis | granulation/angiogenesis ([2]; leprotic wound (about 3 yr old), topical): very good granulation/angiogenesi-s | reduction in size ([2]; leprotic wound, about 12 weeks topical treatment): about 60% | time to initiation of repair-by-in-situ-regeneration ([2]; topical and/or systemic therapy): 72 to 96 h | time to first appearance of healthy granulation tissue ([2]; wounds of different locations, origins and durations): 72 to 96 h | echocardiography: movement of myocardium in ischaemic zones ([3]; 96 hrs post surgery): definite non-asynchronous movement of the myocardium | hierarchical nature of the angiogenic response ([3]; 21 days post surgery): capillaries filled with blood cells | angiogenic response in ischaemic cardiac muscle tissue ([3]; 21 days post surgery, vs control): extensive angiogenic response | histopathology: angiogenic response ([3]; around two-weeks, vs control): advanced degree of matured angiogenic response | expansion of biomass (cell population) [4]: expand the biomass (cell population) at the least possible time

NCCCC[C@@H](N)C(=O)O [d-Lysine]
cellular expansion / growth in-vitro [5]: equally effective | angiogenesis in-vivo [6]: equally effective | expansion of cells in-vivo [6]: equally effective

Cl.NCCCC[C@H](N)C(=O)O [L-lysine HCl]
14C-Glycine incorporation [7]: Comparatively low incorporation | 35S-Methionine incorporation ([8]; listed as 100% (w/w) powder formulation): Significant difference | 35S-Methionine incorporation ([8]; listed as amino acid): Significantly more
